1 compound from patent US12295940B2, “Viral inhibitors, the synthesis thereof, and intermediates thereto” (Takeda Pharmaceutical Company Limited, priority 2022, dated 2025) can be followed below.

Data set [1] can be described thus: Stability data of process systems (Example 3-23). The data set is classed as physicochemical. As to conditions: 7 days. The procedure:
The following stability data was generated and referenced in one or more of the prior examples. Stability of the following systems were studied and found to be stable for at least 7 days: Stability of Compound 3 HCl in MeOH/TBME at 40° C.; Stability of reaction mixture at 40° C. (amount of maribavir); Stability of biphasic mixture at 40° C. (before extraction); Stability of biphasic mixture at 40° C. (during last NaCl washing); Stability of reaction mixture after final distillation step at Stability of biphasic mixture at 75° C.; Stability of reaction mixture after final distillation step at 90° C.; Stability of crystallization mixture after dosage of 2nd portion of toluene at reflux; Stability of crystallization at 20° C.; Stability of mixture during slurry wash at 20-25° C.; Stability of maribavir in the mother liquor at 20-25° C.; Stability of wet cake at 70° C.; and Stability of dry cake at 70° C.

The format of data set [2] is physicochemical. The protocol:
The following solubility data was generated and referenced in one or more of the prior examples. A mixture of approx. 2 g of maribavir and 5 mL solvent was stirred overnight in sealed vials at different temperatures. The clear supernatant solutions were sampled for […] assay. All examples were done in triplicates. Table 3-5. Maribavir solubilities in iPrOAc and toluene.

The format of data set [3] is physicochemical. As to conditions: pH 4. An excerpt:
A preliminary test was done to determine the lower pH to be tested: Three samples of the biphasic mixture during 1st NaCl-wash was taken and adjusted separately to pH 4, 5, and 6. These samples were refluxed overnight and sampled for HPLC purity at different time points. […] It was observed that at lower pH values, some white precipitate occurred. This precipitate dissolved upon raising the pH with NaOH. It was assumed that this was the hydrochloride salt of maribavir. Upon further review, at pH<5.5, the precipitate occurred. Therefore, the lowest pH tested was 6. The distilled reaction mixtures were subjected to crystallization on a 400 ml Easymax scale.

Turning to `CC(C)Nc1nc2cc(Cl)c(Cl)cc2n1[C@H]1O[C@@H](CO)[C@H](O)[C@@H]1O` [Maribavir, (2S,3S,4R,5S)-2-(5,6-dichloro-2-(isopropylamino)-1H-benzo[d]imidazol-1-yl)-5-(hydroxymethyl)tetrahydrofuran-3,4-diol], the “Stability (time found stable)” value in data set [1] is on record as “at least 7 days”. The “Solubility in iPrOAc (in words)” value in data set [2] is on record as “good solubility”. Further, the “Stability by HPLC purity (in words)” value in data set [3] is on record as “perfect stability”.
